One experiment has as its target Human plasma kallikrein (Homo sapiens (Human), UniProt P03952). Nature of the experiment: Kallikrein Assay. Format: biochemical. Particulars: purified Human plasma kallikrein 0.5 nM, substrate Acetyl-K-P-R-AFC; read-out: P. KLK IC50. As for the experimental part:
The effectiveness of a compound of the present invention as an inhibitor of Kallikrein can be determined using a relevant purified serine protease, and an appropriate synthetic substrate. The rate of hydrolysis of the chromogenic or fluorogenic substrate by the relevant serine protease was measured both in the absence and presence of compounds of the present invention. Assays were conducted at room temperature or at 37° C. […] A decrease in the rate of fluorescence change in the presence of inhibitor is indicative of enzyme inhibition. Such methods are known to one skilled in the art. The results of this assay are expressed as the half-maximal inhibitory concentrations (IC50), or the inhibitory constant, Ki.
Kallikrein determinations were made in 50 mM HEPES buffer at pH 7.4 containing 150 mM NaCl, 5 mM CaCl2, and 0.1% PEG 8000 (polyethylene glycol; Fisher Scientific). Determinations were made using purified Human plasma kallikrein at a final concentration of 0.5 nM (Enzyme Research Laboratories) and the synthetic substrate, Acetyl-K-P-R-AFC (Sigma # C6608) at a concentration of […].
Times required to achieve equilibration between enzyme and inhibitor were determined in control experiments. The reactions were performed under linear progress curve conditions and fluorescence increase measured at 405 Ex/510 Em nm. […] IC50 was determined by inflection point from a four parameter logistic curve fit. Ki was calculated using the Cheng Prusoff equation, Ki=IC50/(1+([S]/Km)).

For experiment [1], the system named is Human plasma (intrinsic coagulation cascade). The experiment is described as follows: Activated Partial Thromboplastin Time (aPTT) Assay. Particulars: concentration that causes a 50% (1.5×) increase of clot time over vehicle. As for the experimental part:
Activated partial thromboplastin time (aPTT) is a clotting test that measures the intrinsic coagulation cascade. The test is performed in sodium citrated plasma. Human plasma is made by collecting blood from healthy donors of both genders into Na citrate tubes (Sarstedt coagulation 9NC/10 ml). Blood is centrifuged at 1500×g and the plasma is collected. aPTT is checked on each individual donor and those within the normal range (28-40 seconds) are pooled, aliquoted, and stored at −80 C. Test samples are prepared by spiking inhibitors or vehicle into plasma. These spiked samples are then run on a coagulation analyzer (STA-R Evolution, Stago Diagnostica). In general, the analyzer performs the following steps: Factor XII is activated by addition of ellagic acid (Pacific Hemostasis), and then time to clot is measured after re-calcification of the sample. Inhibition of FXI will cause aPTT clot time to be prolonged. The data is expressed as percent increase over vehicle control clot time and the concentration that causes a 50% (1.5×) percent increase of clot time are reported.

For a further experiment, the target named is human Factor XIa (Homo sapiens (Human), UniProt P03951). The experiment is described as follows: Factor XIa Assay. Format: biochemical. The following applies: for IC50: human Factor XIa 0.04 nM, 30 min pre-incubation at 25° C., substrate GPR-AFC, read-out: FXIa IC50. A digest of the protocol: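 IC50 values were obtained from four-parameter log(inhibitor)-response fits of % inhibition, then converted to Ki using Cheng-Prusoff. GPR-AFC hydrolysis was read at 400/505 nm after 60 min at 25 °C.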
Chain of human Factor XIa (P03951 388-625): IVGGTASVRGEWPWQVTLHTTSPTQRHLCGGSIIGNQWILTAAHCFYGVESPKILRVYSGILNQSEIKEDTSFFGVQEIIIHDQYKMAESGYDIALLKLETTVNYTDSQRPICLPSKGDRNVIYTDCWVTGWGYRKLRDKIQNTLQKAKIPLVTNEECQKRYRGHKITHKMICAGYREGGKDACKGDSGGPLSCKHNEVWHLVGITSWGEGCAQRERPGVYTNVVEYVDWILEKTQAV
Chain of human Factor XIa (P03951 19-387 partner): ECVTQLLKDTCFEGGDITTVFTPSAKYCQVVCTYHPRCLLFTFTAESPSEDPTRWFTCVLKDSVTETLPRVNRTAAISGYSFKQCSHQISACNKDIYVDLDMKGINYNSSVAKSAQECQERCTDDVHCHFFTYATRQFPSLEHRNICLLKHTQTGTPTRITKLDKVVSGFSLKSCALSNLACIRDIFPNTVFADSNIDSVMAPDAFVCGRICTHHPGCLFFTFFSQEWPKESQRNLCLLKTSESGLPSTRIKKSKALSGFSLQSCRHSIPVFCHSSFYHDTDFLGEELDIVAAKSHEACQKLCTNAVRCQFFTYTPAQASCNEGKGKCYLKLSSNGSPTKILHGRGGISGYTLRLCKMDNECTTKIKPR

Chain of Human plasma kallikrein (P03952 391-638): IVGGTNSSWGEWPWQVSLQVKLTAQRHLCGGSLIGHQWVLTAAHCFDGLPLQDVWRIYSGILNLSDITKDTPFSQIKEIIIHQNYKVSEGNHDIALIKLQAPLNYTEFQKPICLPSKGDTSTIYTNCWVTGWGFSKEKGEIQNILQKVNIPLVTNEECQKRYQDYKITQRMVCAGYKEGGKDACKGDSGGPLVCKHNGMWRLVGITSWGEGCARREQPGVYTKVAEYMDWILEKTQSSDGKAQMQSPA
Chain of Human plasma kallikrein (P03952 20-390 partner): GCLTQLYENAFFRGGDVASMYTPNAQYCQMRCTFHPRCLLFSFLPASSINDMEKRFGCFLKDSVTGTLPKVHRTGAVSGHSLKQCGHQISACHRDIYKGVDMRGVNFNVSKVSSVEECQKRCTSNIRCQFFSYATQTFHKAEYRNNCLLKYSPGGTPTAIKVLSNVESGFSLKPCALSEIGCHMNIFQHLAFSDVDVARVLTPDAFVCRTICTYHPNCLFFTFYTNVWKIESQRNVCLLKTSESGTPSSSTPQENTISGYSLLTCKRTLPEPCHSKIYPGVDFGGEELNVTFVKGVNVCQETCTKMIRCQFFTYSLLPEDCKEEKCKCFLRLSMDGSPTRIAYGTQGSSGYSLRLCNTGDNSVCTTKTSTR

In general, IC50 refers to the concentration needed to halve the response being measured. With `O=C(O)c1ccc(NC(=O)C(CC2CC(F)(F)C2)c2ccc(-c3c(OC(F)F)ccc(Cl)c3F)c[n+]2[O-])cc1` (racemic) [Example 50, (S)- and (R)-2-(1-((4-carboxyphenyl)amino)-3-(3,3-difluorocyclobutyl)-1-oxopropan-2-yl)-5-(3-chloro-6-(difluoromethoxy)-2-fluorophenyl)pyridine 1-oxide], on Human plasma kallikrein, the IC50 amounted to 47 nM. Besides, the “aPTT (1.5x)” value in experiment [1] was 1.33 µM.

As for `O=C1CCC(CC(C(=O)Nc2ccc(C(=O)O)cc2)c2ccc(-c3c(OC(F)F)ccc(Cl)c3F)c[n+]2[O-])CC1` (single isomer, unassigned) [Example 33], at Human plasma kallikrein, the IC50 was 81 nM. Take `O=C(O)c1ccc(NC(=O)C(C[C@H]2CC[C@H](O)CC2)c2ccc(-c3c(OC(F)F)ccc(Cl)c3F)c[n+]2[O-])cc1` (single isomer, unassigned) [Example 35]: the IC50 on Human plasma kallikrein is 12 nM. Also, the “aPTT (1.5x)” value in experiment [1] came to 0.39 µM.

Regarding `O=C(O)c1ccc(NC(=O)C(CC2CCC(F)(F)CC2)c2ccc(-c3c(OC(F)F)ccc(Cl)c3F)c[n+]2[O-])cc1` (single isomer, unassigned) [Example 39], at Human plasma kallikrein, the IC50 is 25 nM. Moreover, in experiment [1], the “aPTT (1.5x)” value was 1.30 µM. As to `C[C@]1(O)CC[C@@H](CC(C(=O)Nc2ccc(C(=O)O)cc2)c2ccc(-c3c(OC(F)F)ccc(Cl)c3F)c[n+]2[O-])CC1` (single isomer, unassigned) [Example 40, 2-(1-((4-carboxyphenyl)amino)-3-((1s,4s)-4-hydroxy-4-methylcyclohexyl)-1-oxopropan-2-yl)-5-(3-chloro-6-(difluoromethoxy)-2-fluorophenyl)pyridine 1-oxide], the IC50 on Human plasma kallikrein was found to be 35 nM; on human Factor XIa, 3.2 nM. For `O=C(O)c1ccc(NC(=O)C(CC23CC(C2)C3)c2ccc(-c3c(OC(F)F)ccc(Cl)c3F)c[n+]2[O-])cc1` (single isomer, unassigned) [Example 52], the IC50 on Human plasma kallikrein was found to be 14 nM. Besides, the “aPTT (1.5x)” value in experiment [1] was 1.17 µM.

Consider `CC1CC1C[C@@H](C(=O)Nc1ccc(C(=O)O)cc1)c1ccc(-c2c(C(F)(F)F)ccc(Cl)c2F)c[n+]1[O-]` (single isomer, unassigned) [Example 65], for which the IC50 on Human plasma kallikrein was determined as 51 nM. Besides, the “aPTT (1.5x)” value in experiment [1] is 1.86 µM.

Consider `COc1cc(C(CC2CC2)C(=O)Nc2ccc(C(=O)O)cc2)[n+]([O-])cc1-c1c(OC(F)F)ccc(Cl)c1F` (single isomer, unassigned) [Example 70, 2-(1-((4-carboxyphenyl)amino)-3-cyclopropyl-1-oxopropan-2-yl)-5-(3-chloro-6-(difluoromethoxy)-2-fluorophenyl)-4-methoxypyridine 1-oxide], for which the IC50 at Human plasma kallikrein was 3.3 nM. Moreover, the “aPTT (1.5x)” value in experiment [1] is 0.82 µM. In the case of `COc1cc(C(CC2CC2)C(=O)Nc2ccc(C(=O)O)cc2)[n+]([O-])cc1-c1c(OC(F)F)ccc(Cl)c1F` (single isomer, unassigned) [Example 71, 2-(1-((4-carboxyphenyl)amino)-3-cyclopropyl-1-oxopropan-2-yl)-5-(3-chloro-6-(difluoromethoxy)-2-fluorophenyl)-4-methoxypyridine 1-oxide], the IC50 at Human plasma kallikrein is 11 nM. Also, in experiment [1], the “aPTT (1.5x)” value was 1.24 µM. The like results for `O=C(O)c1ccc(NC(=O)C(CC2CC2)c2ccc(-c3c(OC(F)F)ccc(Cl)c3F)c[n+]2[O-])cc1F` (single isomer, unassigned) [Example 73] were, in that order, 88 nM and 2.15 µM. `CC1CC(CC(C(=O)Nc2ccc(C(=O)O)cc2)c2ccc(-c3c(C(F)(F)F)ccc(Cl)c3F)c[n+]2[O-])C1` (single isomer, unassigned) [Example 75, 2-(1-((4-carboxyphenyl)amino)-3-(3-methylcyclobutyl)-1-oxopropan-2-yl)-5-(3-chloro-2-fluoro-6-(trifluoromethyl)phenyl) pyridine 1-oxide]: the values for the IC50 at Human plasma kallikrein and at human Factor XIa were 77.8 nM and 3.3 nM, respectively. Turning to `O=C(O)c1ccc(NC(=O)C(CC2CC2(F)F)c2ccc(-c3c(C(F)F)ccc(Cl)c3F)c[n+]2[O-])cc1` (single isomer, unassigned) [Example 77, 2-(1-((4-carboxyphenyl)amino)-3-(2,2-difluorocyclopropyl)-1-oxopropan-2-yl)-5-(3-chloro-6-(difluoromethyl)-2-fluorophenyl)pyridine 1-oxide], the IC50 on Human plasma kallikrein came to 37.6 nM. Consider `O=C(O)c1ccc(NC(=O)C(CC2CC2C(F)(F)F)c2ccc(-c3c(C(F)F)ccc(Cl)c3F)c[n+]2[O-])cc1` (single isomer, unassigned) [Example 87, 2-(1-((4-carboxyphenyl)amino)-1-oxo-3-(2-(trifluoromethyl)cyclopropyl)propan-2-yl)-5-(3-chloro-6-(difluoromethyl)-2-fluorophenyl)pyridine 1-oxide], for which the IC50 at Human plasma kallikrein came out at 2.7 nM. Besides, the “aPTT (1.5x)” value in experiment [1] came to 0.92 µM.

Regarding `O=C(O)c1ccc(NC(=O)C(CC2CC2C(F)(F)F)c2ccc(-c3c(C(F)F)ccc(Cl)c3F)c[n+]2[O-])cc1` (single isomer, unassigned) [Example 88, 2-(1-((4-carboxyphenyl)amino)-1-oxo-3-(2-(trifluoromethyl)cyclo-propyl)propan-2-yl)-5-(3-chloro-6-(difluoromethyl)-2-fluorophenyl)pyridine 1-oxide], the IC50 at Human plasma kallikrein stood at 3.6 nM. In addition, the “aPTT (1.5x)” value in experiment [1] worked out at 1.43 µM.

In the case of `O=C(O)c1ccc(NC(=O)C(CC2CC2C(F)F)c2ccc(-c3c(C(F)F)ccc(Cl)c3F)c[n+]2[O-])cc1` (single isomer, unassigned) [Example 89, 2-(1-((4-carboxyphenyl)amino)-3-(2-(difluoromethyl)cyclopropyl)-1-oxopropan-2-yl)-5-(3-chloro-6-(difluoromethyl)-2-fluorophenyl)pyridine-1-oxide], the IC50 on Human plasma kallikrein was 7.1 nM; at human Factor XIa it was 0.6 nM. For `O=C(O)c1ccc(NC(=O)C(CC2CC2C(F)F)c2ccc(-c3c(C(F)F)ccc(Cl)c3F)c[n+]2[O-])cc1` (single isomer, unassigned) [Example 90, 2-(1-((4-carboxyphenyl)amino)-3-(2-(difluoromethyl)cyclopropyl)-1-oxopropan-2-yl)-5-(3-chloro-6-(difluoromethyl)-2-fluorophenyl)pyridine 1-oxide], in that order: 5.3 nM and 1.1 nM. With `CC1C(C)C1CC(C(=O)Nc1ccc(C(=O)O)cc1)c1ccc(-c2c(OC(F)F)ccc(Cl)c2F)c[n+]1[O-]` (single isomer, unassigned) [Example 98, 2-(1-((4-carboxyphenyl)amino)-3-(2,3-dimethylcyclopropyl)-1-oxopropan-2-yl)-5-(3-chloro-6-(difluoromethoxy)-2-fluorophenyl)pyridine 1-oxide], the IC50 at Human plasma kallikrein was found to be 11.3 nM. In addition, the “aPTT (1.5x)” value in experiment [1] turned out to be 0.72 µM.

`CC1C(C)C1CC(C(=O)Nc1ccc(C(=O)O)cc1)c1ccc(-c2c(OC(F)F)ccc(Cl)c2F)c[n+]1[O-]` (single isomer, unassigned) [Example 99, 2-(1-((4-carboxyphenyl)amino)-3-(2,3-dimethylcyclopropyl)-1-oxopropan-2-yl)-5-(3-chloro-6-(difluoromethoxy)-2-fluorophenyl)pyridine 1-oxide]: the IC50 at Human plasma kallikrein came to 92 nM. Further, in experiment [1], the “aPTT (1.5x)” value turned out to be 2.78 µM. On to `COC(=O)c1ccc(NC(=O)C(CC2CC2)c2ccc(-c3c(C(F)F)ccc(Cl)c3F)c[n+]2[O-])cc1` (single isomer, unassigned) [Example 114, 5-(3-chloro-6-(difluoromethyl)-2-fluorophenyl)-2-(3-cyclopropyl-1-((4-(methoxycarbonyl)phenyl)amino)-1-oxopropan-2-yl)pyridine 1-oxide], for which the values for the IC50 on Human plasma kallikrein and on human Factor XIa were 201 nM and 1000 nM, respectively. Further, the “FXIa % Inh. @ 1000 nM” value on human Factor XIa (@ 1000 nM compound) turned out to be 45%. With `Cc1cc(NC(=O)C(CC2CC2)c2ccc(-c3c(C(F)F)ccc(Cl)c3F)c[n+]2[O-])ccc1C(=O)O` (single isomer, unassigned) [Example 122, 2-(1-((4-carboxy-3-methylphenyl)amino)-3-cyclopropyl-1-oxopropan-2-yl)-5-(3-chloro-6-(difluoromethyl)-2-fluorophenyl)pyridine 1-oxide], the values for the IC50 on Human plasma kallikrein and at human Factor XIa were 69.8 nM and 9.9 nM, respectively.

Values taken from patent publication US10143681B2, “Factor XIa inhibitors” (MERCK SHARP & DOHME CORP., priority 2016, dated 2018).
